# Assay results from patent US12419890B2, “Administration of sumo-activating enzyme inhibitor and checkpoint inhibitors” (Takeda Pharmaceutical Company Limited, priority 2019, dated 2025).
# Test system: MC38 syngeneic mouse colon adenocarcinoma-derived subcutaneous tumor
# Test: MC38 Study 8: mouse MC38 syngeneic tumor model, individual tumor volume
# Assay type: in vivo
# Settings: BIWx3 till Day 17
# Protocol: MC38 Study 8: MC38 is a mouse colon adenocarcinoma cell line. MC38 mouse syngeneic tumor model was generated by subcutaneous inoculation with 1.0×10^6 MC38 cells (cell suspension) in 11 weeks old female C57BL/6 mice (SINO-British SIPPR/BK Lab Animal Ltd., Shanghai, China) in the flank. When the mean tumor volume reached approximately 60 mm^3, the animals were randomized into one vehicle control and five treatment groups (n=8/group). Mice were then dosed with 20% HPbCD or Compound I-263a or anti-mouse PD-1 antibody over a 21-day period. Tumor growth and body weight were measured twice per week during the treatment and post-treatment periods, and mice were humanely euthanized once they had reached their humane endpoint.
# Study 8: A 0.75 mg/mL stock solution of Compound I-263a was formulated weekly in 20% HPβCD and administered intravenously (IV) based on exact animal body weight on each day of treatment, using a dosing volume of 10 mL/kg body weight. Final doses received were 7.5 mg/kg. Dosing volume for Compound I-263a was 0.2 mL. […]
# Tumors were measured twice weekly using vernier calipers. Tumor volumes were calculated using standard equation: V=W^2×L/2, where V=volume, W=width, and L=length for the tumor. […] Tumor size and body weight were measured twice a week for the duration of the study. […]
compound,measurement,setting,value
"Cc1sc(C(=O)c2cncnc2N[C@@H]2C[C@H](COS(N)(=O)=O)[C@@H](O)C2)cc1[C@@H]1NCCc2ccc(Cl)cc21 [Compound I-263a, [(1R,2S,4R)-4-{[5-({4-[(1R)-7-chloro-1,2,3,4-tetrahydroisoquinolin-1-yl]-5-methyl-2-thienyl}carbonyl)pyrimidin-4-yl]amino}-2-hydroxycyclopentyl]methyl sulfamate]",tumors with tumor growth delay,"delay day 11-14, Compound I-263a 7.5 mg/kg IV or anti-mPD-1 10 mg/kg IP",1
same,tumors with tumor growth delay,"delay from day 7-18, 8 implanted tumors, Compound I-263a 7.5 mg/kg IV alone or plus anti-mPD-1 10 mg/kg IP",2
